In US20060115440A1, “Silver dihydrogen citrate compositions” (priority 2004, published 2006):
Read-outs that look alike come from different tables or passages of the source.

Key:
[1] = test system: Pseudomonas aeruginosa (ATCC 15442); conditions: test solutions contained 100 ppm Ag^+ in 5% citric acid solution at pH 7.0 (adjusted with NaOH)
From the text: (§1) In the Table 57, test solutions contained 100 ppm Ag^+ in 5% citric acid solution at pH 7.0 (adjusted with NaOH).

[2] = test system: Escherichia coli (ATCC 10536); conditions: test solutions contained 100 ppm Ag^+ in 5% citric acid solution at pH 7.0 (adjusted with NaOH)
From the text: as §1

[3] = test system: Staphylococcus aureus (ATCC 6538); conditions: test solutions contained 100 ppm Ag^+ in 5% citric acid solution at pH 7.0 (adjusted with NaOH)
From the text: as §1

[4] = test system: Corynebacterium xerosis (ATCC 373)
From the text: as §1

[5] = test system: bacteria, fungi and viruses
[6] = in a mixture of anion, non-ionic and amphoteric surfactants
[7] = test system: Trichophyton mentagrophytes (ATCC 9533); conditions: test solutions 100 ppm Ag^+ in water at pH 7.0 (adjusted with NaOH)
From the text: (§2) In the Table 58, test solutions contained 100 ppm Ag^+ in water at pH 7.0 (adjusted with NaOH).

[8] = test system: Malessezia furfur (DSM 6171); conditions: test solutions 100 ppm Ag^+ in water at pH 7.0 (adjusted with NaOH)
From the text: as §2

[9] = test system: Trichophyton rubrum (ATCC 10218); conditions: test solutions 100 ppm Ag^+ in water at pH 7.0 (adjusted with NaOH)
From the text: as §2

[10] = test system: Corynebacterium minutissimum (ATCC 23348); conditions: test solutions 100 ppm Ag^+ in water at pH 7.0 (adjusted with NaOH)
From the text: as §2

[11] = test system: Candida albicans (ATCC 10231); conditions: test solutions 100 ppm Ag^+ in water at pH 7.0 (adjusted with NaOH)
From the text: as §2

[12] = test system: Propionibacterium acnes (ATCC 6919); conditions: test solutions 100 ppm Ag^+ in water at pH 7.0 (adjusted with NaOH)
From the text: as §2

[13] = test system: Chaetomium globosum (ATCC 6205); conditions: test solutions 100 ppm Ag^+ in water at pH 7.0 (adjusted with NaOH)
From the text: as §2

[14] = test system: Epidermophyton floccosum DSM 10709; conditions: test solutions 100 ppm Ag^+ in water at pH 7.0 (adjusted with NaOH)
From the text: as §2

[15] = test system: several varieties of bacteria
From the text: as §1, §2

O=C(O)CC(O)(CC(=O)O)C(=O)[O-].[Ag+] [Silver dihydrogen citrate, silver dihydrogen citrate]
Minimum Inhibitory Concentration (MIC) [1]: 4.0 μg/ml Ag^+ | Minimum Inhibitory Concentration (MIC) [2]: 2.0 μg/ml Ag^+ | Minimum Inhibitory Concentration (MIC) [3]: 4.0 μg/ml μg/ml Ag^+ | Minimum Inhibitory Concentration (MIC) ([4]; Corynebacterium xerosis (ATCC 373), test solutions 100 ppm Ag^+ in water at pH 7.0 (adjusted with NaOH)): 3.0 μg/ml Ag^+ | Minimum Inhibitory Concentration (MIC) ([4]; test solutions contained 100 ppm Ag^+ in 5% citric acid solution at pH 7.0 (adjusted with NaOH)): 2.0 μg/ml Ag^+ | antimicrobial activity (in words) [5]: antimicrobial activity against a variety of microbes | time-wise stability of the antimicrobial activity [6]: stable and showed good preservation | Minimum Inhibitory Concentration (MIC) [7]: 12-24 μg/ml Ag^+ | Minimum Inhibitory Concentration (MIC) [8]: 6.0 μg/ml Ag^+ | Minimum Inhibitory Concentration (MIC) [9]: 12-48 μg/ml Ag^+ | Minimum Inhibitory Concentration (MIC) [10]: 3.0 μg/ml Ag^+ | Minimum Inhibitory Concentration (MIC) [11]: 3.0 μg/ml Ag^+ | Minimum Inhibitory Concentration (MIC) [12]: 6.0 μg/ml Ag^+ | Minimum Inhibitory Concentration (MIC) [13]: 12-24 μg/ml Ag^+ | Minimum Inhibitory Concentration (MIC) [14]: 12-48 μg/ml Ag^+ | effect on several varieties of bacteria (in words) [15]: bacteriostatic
